Like-named read-outs stand apart in the source and are kept apart here. [ ]: non-standard residue; d: D form. Dap = NC[C@H](N)C(=O)O
Tests used:
[1] = system: MASP-2; test: recombinant catalytic fragment of human MASP-2; conditions: up to 1 h
[2] = system: MASP-2; conditions: cited from earlier work
[3] = system: MASP-1; conditions: cited from earlier work
[4] = system: trypsin; conditions: fold more potent than tested SFMI2 variants; cited from earlier work

cleaved bond [1]	Substance	MASP-2 inhibition [2]	MASP-2 inhibition ([2]; listed as wild-type SFTI)	MASP-1 inhibition [3]	potency on trypsin relative to SFMI2 variants [4]
Arg5-Ser6, 1 h	Ac-GY[Dap]SRSYPPVCIPD-NH2				
Arg5-Ser6, 1 h	HELM PEPTIDE1{[ac].G.Y.C.S.R.S.Y.P.P.V.C.I.P.D.[am]}$PEPTIDE1,PEPTIDE1,4:R3-12:R3$$$V2.0 (SMILES CC[C@H](C)[C@H](NC(=O)[C@@H]1CSSC[C@H](NC(=O)[C@H](Cc2ccc(O)cc2)NC(=O)CNC(C)=O)C(=O)N[C@@H](CO)C(=O)N[C@@H](CCCNC(=N)N)C(=O)N[C@@H](CO)C(=O)N[C@@H](Cc2ccc(O)cc2)C(=O)N2CCC[C@H]2C(=O)N2CCC[C@H]2C(=O)N[C@@H](C(C)C)C(=O)N1)C(=O)N1CCC[C@H]1C(=O)N[C@@H](CC(=O)O)C(N)=O)				
	SFTI: 14-amino acid sunflower trypsin inhibitor, smallest natural canonical trypsin inhibitor, cyclic	does not inhibit the MASPs	does not inhibit MASP-2 at all	does not inhibit the MASPs	about 1000 fold

— PMC9016712 (ACS Chemical Biology, 2022)
